Several values for one entry are separate records, joined by “and”; a condition that tells them apart may be missing. Equal entries are not always repeated. Where two headings read alike, the source gives them in different places.

The test system of assay [1] is human P-glycoprotein HEK cells (HEK-P-gp). Kind of assay: H3K27me3 immunocytochemistry assay in P-gp expressing HEK293T cells, with or without elacridar. The format is cell-based. The note with it: Homo sapiens, 4 days compound treatment. The procedure, abridged:
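HEK293T stably expressing human ABCB1 (vinblastine-selected), 1000 cells/well, treated with serially diluted compound for 4 days at 37° C, with or without 250 nM elacridar. Fixed cells stained with anti-H3K27me3 plus Alexa 488 secondary and Hoechst; imaged at 10×, nuclei identified by Hoechst.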

The target in another assay is EZH2/PRC2 complex (Homo sapiens, UniProt O75530). Description: Histone methyltransferase assay (radioisotope-based HotSpot). Type of assay: biochemical. Conditions: EZH2/PRC2 complex 10 nM, core histone substrate 0.05 mg/ml, 3H-SAM 1 μM; read-out: IC50, inhibitory effects on the HMT enzyme. On the procedure: Effect of compounds of the present disclosure on EZH2/PRC2 complex methyltransferase functional activity was measured using the radioisotope-based HotSpot assay described by Horiuchi, K. Y., et al. Assay Drug Dev Technol. 11(4):227-36 (2013). Briefly, compounds were prepared in a 10-point 3-fold serial dilution in DMSO from a 10 mM stock in ECHO qualified plate using Assist Plus (Integra Biosciences) liquid handler. […] Nanoliter quantities of each compound's concentration series were transferred into the enzyme/substrate mix using (Echo 550, LabCyte Inc. Sunnyvale, Calif.) acoustic dispenser and pre-incubated for 20 min at room temperature. The methylation reaction was initiated by the addition of 1 μl of 5 μM S-Adenosyl-L-[methyl-^3H]methionine (^3H-SAM) and incubated at 30° C. for 1 h. The final concentration of the EZH2/PRC2 complex, core histone substrate and ^3H-SAM were 10 nM, 0.05 mg/ml, and 1 μM respectively. The % activity of test samples were calculated with reference to positive (no compound) and negative (no EZH2/PRC2) controls on the plate using Excel (Microsoft). The resulting values were exported to Prism (GraphPad software) to generate concentration response curves and IC50 values using the four-parameter logistic equation.

In assay [2] the target is T1, biotinylated AVI-tagged EED (76-441) (Homo sapiens, UniProt O75530).
T1 construct: GST (N, cleaved yes); made in house; host or cells: E. coli BL21(DE3), co-expressed with pGro7
Kind of assay: EED binding SPR assay. Conditions: 1:1 binding model; read-out: KD, equilibrium dissociation constant as measured by surface plasmon resonance (SPR). How it is done:
Biotinylated AVI-tagged EED was produced using standard molecular biology techniques. A pGEX plasmid with a GST-preScission-cleavage-site-AVI-EED(76-441) sequence was placed into E. coli BL21(DE3) cells and co-expressed with pGro7. The E. coli were grown in shaker flasks in LB with ampicillin at 37° C. at 110 rpm to an OD600=0.7. At this time the temperature was lowered to 15° C. and IPTG was added to 0.3 mM. The cells were allowed to express overnight. Cells were then harvested.
For purification, the E. coli cell pellet was lysed into a buffer of 50 mM Tris pH 8.0, 500 mM NaCl, 5% glycerol and 5 mM DTT. The lysate was loaded onto a GSTrap FF column from GE Healthcare. After washing, the bound protein was eluted with 50 mM Tris pH 8.0, 500 mM NaCl, 5% glycerol, 5 mM DTT and 15 mM GSH. The collected fractions were combined and incubated with PreScission enzyme overnight at 4° C. The cleaved protein was then passed through a GSTrap FF column in a buffer of 50 mM Tris pH 8.0, 500 mM NaCl, 5% glycerol and 5 mM DTT. The cleaved protein was confirmed through mass spectrometry. The AVI-EED(76-441) was then buffer exchanged into 50 mM Bicine pH 8.3, 10 mM ATP, 10 mM magnesium acetate and 50 μM D-Biotin. 3 mg of BirA enzyme was added to the system and incubated at 4° C. for 2 hours to biotinylate the AVI-EED(76-441). The biotinylated-AVI-EED(76-441) was then buffer exchanged into 20 mM Tris pH 8.0 and 400 mM NaCl and passed through a size exclusion column of Superdex 200 16/60 Increase. The purified monomeric biotinylated-AVI-EED(76-441) was confirmed through SDS-PAGE, LC-MS and analytical size exclusion chromatography.
All surface plasmon resonance (SPR) assays were performed using a GE Biacore S200 utilizing GE Biotin CAPture chips. Capturing of CAP reagents was performed with a flow rate of 2 μL/min for 90 seconds. For protein capturing, a solution of 50 μg/mL of biotinylated AVI-tagged EED (76-441) in 10 mM HEPES pH 7.4, 150 mM NaCl, 0.05% Tween 20 and 2% DMSO (Running Buffer) was flowed over the chip with a flow rate of 5 μL/min for a contact time of 30 seconds. Final readings were 2200-2400 RU. For compounds, 7 concentrations were made with 3-dilutions using the Running Buffer for a total of 300 μL of each concentration in a 96-well microplate. During the binding experiments, a flow rate of […] was used for an association time of 90 seconds followed by a disassociation time of 180 seconds. The compartment temperature was set at 10° C. with the chip at 25° C. During regeneration the flow rate was set to 30 μL/min for 30 seconds. All fittings were done using a 1:1 binding model.
(In general: SPR reads the build-up and loss of mass on a sensor chip optically.)

[3] abbreviates: HEK293, 96 h, without elacridar, read-out: IC50, inhibitory activity on human P-glycoprotein HEK cells (HEK-P-gp).
Where [4] appears, read: HEK293, with 250 nM elacridar, read-out: IC50, inhibitory activity on human P-glycoprotein HEK cells (HEK-P-gp) pretreated with elacridar.

T1 sequence (O75530 76-441 limits assumed): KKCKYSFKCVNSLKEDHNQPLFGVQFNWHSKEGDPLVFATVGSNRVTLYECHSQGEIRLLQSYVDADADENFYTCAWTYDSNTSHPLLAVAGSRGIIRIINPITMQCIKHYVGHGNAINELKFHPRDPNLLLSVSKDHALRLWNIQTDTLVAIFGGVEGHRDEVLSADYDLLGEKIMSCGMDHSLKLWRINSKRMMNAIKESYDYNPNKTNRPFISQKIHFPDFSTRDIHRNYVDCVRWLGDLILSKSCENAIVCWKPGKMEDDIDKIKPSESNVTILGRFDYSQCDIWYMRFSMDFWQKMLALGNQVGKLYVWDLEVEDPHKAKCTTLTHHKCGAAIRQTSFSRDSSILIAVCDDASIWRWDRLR
Chain of EZH2/PRC2 complex (O75530 whole entry): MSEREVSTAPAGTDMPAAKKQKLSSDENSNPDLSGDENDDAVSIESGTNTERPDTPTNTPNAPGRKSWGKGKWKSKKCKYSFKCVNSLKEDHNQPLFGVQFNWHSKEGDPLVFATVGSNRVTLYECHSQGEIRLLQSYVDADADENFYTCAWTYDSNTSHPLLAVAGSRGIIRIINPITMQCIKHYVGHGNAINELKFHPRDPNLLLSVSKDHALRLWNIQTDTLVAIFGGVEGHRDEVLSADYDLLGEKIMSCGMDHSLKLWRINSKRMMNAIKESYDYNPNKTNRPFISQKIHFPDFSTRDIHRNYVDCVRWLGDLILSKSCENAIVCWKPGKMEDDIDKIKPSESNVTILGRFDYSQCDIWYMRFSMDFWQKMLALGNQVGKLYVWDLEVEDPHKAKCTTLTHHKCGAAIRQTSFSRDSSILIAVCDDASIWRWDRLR
Chain of EZH2/PRC2 complex (Q15910 whole entry partner): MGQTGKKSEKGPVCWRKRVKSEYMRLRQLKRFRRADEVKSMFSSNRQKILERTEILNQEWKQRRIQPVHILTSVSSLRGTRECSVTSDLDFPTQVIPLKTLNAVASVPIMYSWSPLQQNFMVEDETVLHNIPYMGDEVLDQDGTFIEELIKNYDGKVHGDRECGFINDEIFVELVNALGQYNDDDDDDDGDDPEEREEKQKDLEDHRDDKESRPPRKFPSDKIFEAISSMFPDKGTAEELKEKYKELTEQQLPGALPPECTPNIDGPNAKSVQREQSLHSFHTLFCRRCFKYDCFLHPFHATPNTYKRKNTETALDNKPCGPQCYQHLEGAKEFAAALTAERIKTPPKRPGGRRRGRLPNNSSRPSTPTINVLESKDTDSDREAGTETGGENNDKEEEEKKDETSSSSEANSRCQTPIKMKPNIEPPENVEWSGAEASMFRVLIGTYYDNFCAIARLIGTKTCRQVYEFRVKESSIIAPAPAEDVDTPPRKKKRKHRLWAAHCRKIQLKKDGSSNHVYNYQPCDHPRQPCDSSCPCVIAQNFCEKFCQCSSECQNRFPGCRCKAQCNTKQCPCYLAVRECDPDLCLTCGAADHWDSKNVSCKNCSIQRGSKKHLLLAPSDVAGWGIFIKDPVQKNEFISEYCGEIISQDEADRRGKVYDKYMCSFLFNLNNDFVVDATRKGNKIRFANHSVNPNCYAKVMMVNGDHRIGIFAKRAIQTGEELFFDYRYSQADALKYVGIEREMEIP
Chain of EZH2/PRC2 complex (Q15022 whole entry partner): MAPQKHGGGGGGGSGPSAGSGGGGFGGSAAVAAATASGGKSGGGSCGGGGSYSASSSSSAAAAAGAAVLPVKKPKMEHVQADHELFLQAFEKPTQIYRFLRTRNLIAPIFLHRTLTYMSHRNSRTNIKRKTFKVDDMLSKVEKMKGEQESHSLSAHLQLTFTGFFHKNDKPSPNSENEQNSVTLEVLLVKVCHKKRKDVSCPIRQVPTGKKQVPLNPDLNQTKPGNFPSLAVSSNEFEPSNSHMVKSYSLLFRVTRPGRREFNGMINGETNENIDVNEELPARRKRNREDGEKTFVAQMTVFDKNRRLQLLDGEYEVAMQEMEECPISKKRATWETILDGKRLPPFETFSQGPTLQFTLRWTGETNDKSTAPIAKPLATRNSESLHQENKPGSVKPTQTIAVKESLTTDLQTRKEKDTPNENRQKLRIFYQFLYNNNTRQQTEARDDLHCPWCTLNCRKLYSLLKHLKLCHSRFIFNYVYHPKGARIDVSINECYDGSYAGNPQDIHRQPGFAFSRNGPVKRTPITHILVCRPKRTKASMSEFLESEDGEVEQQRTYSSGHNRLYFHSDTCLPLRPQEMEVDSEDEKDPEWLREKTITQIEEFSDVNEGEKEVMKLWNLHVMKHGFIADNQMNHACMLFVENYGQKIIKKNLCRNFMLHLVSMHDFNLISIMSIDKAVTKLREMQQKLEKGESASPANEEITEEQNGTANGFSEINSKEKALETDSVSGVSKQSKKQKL

The IC50 is the midpoint of a concentration-inhibition curve. In the case of `Cc1ncccc1-c1cc2c(n3cnnc13)NCc1c(F)ccc3c1[C@H](CO3)CO2` [Compound 185, (R)-12-fluoro-4-(2-methylpyridin-3-yl)-7a,8,13,14-tetrahydro-7H-[1,2,4]triazolo[4′,3′:1,6]pyrido[3,2-b]benzofuro[4,3-fg][1,4]oxazonine], the IC50 (in assay [1] (setting [3]); in assay [1] (setting [4]); on EZH2/PRC2 complex) was over 500 nM each time.

Usually Kd stands for the constant that tells how readily two partners part at equilibrium. Consider `Cn1nc(O)cc1-c1cc2c(n3cnnc13)NCc1c(F)ccc3c1C(CO3)CO2` [Compound 197, (S)-5-(12-fluoro-7a,8,13,14-tetrahydro-7H-[1,2,4]triazolo[4′,3′:1,6]pyrido[3,2-b]benzofuro[4,3-fg][1,4]oxazonin-4-yl)-1-methyl-1H-pyrazol-3-ol], for which the IC50 in assay [1] (setting [3]) was under 25 nM; in assay [1] (setting [4]), 50 to 100 nM. In assay [2], the Kd was 10 to 50 nM and < 2.5 nM.

As to `CC(=O)N1CCC(c2cc3c(n4cnnc24)NCc2c(F)cccc2COC3)CC1` [Compound 198, 1-(4-(12-fluoro-6,8,13,14-tetrahydro-[1,2,4]triazolo[4′,3′:1,6]pyrido[3,2-c]benzo[g][1,5]oxazonin-4-yl)piperidin-1-yl)ethan-1-one], the IC50 on EZH2/PRC2 complex was over 500 nM.

Regarding `COc1nc(C)ccc1-c1cc2c(n3cnnc13)NCc1c(F)ccc3c1[C@H](CO3)CO2` [Example 105], the IC50 in assay [1] (setting [3]) and in assay [1] (setting [4]) was 100 to 500 nM throughout. Besides, the Kd in assay [2] fell in the range of 5 to 10 nM.

In the case of `COc1ccc(-c2cc3c(n4cnnc24)NCc2c(F)ccc4c2[C@H](CO4)CO3)c(C)n1` [Example 106], the IC50 fell in the range of 50 to 100 nM in assay [1] (setting [3]) and 25 to 50 nM in assay [1] (setting [4]). The Kd in assay [2] was under 2.5 nM.

Regarding `CN(C)c1ncc(-c2cc3c(n4cnnc24)NCc2c(F)ccc4c2[C@H](CO4)CO3)cn1` [Example 108], the IC50 in assay [1] (setting [3]) and in assay [1] (setting [4]) was over 500 nM each time. The Kd in assay [2] was under 2.5 nM.

Consider `CCOc1ncc(-c2cc3c(n4cnnc24)NCc2c(F)ccc4c2[C@H](CO4)CO3)cn1` [Example 109], for which the IC50 in assay [1] (setting [3]) and in assay [1] (setting [4]) was 100 to 500 nM each time. Further, the Kd in assay [2] was under 2.5 nM.

On to `COc1ncc(F)cc1-c1cc2c(n3cnnc13)NCc1c(F)ccc3c1[C@H](CO3)CO2` [Example 111], for which the IC50 in assay [1] (setting [3]) and in assay [1] (setting [4]) was 100 to 500 nM throughout. For the same molecule, in assay [2], the Kd is 2.5 to 5 nM.

Take `Fc1ccc2c3c1CNc1c(cc(-c4ccc(C(F)(F)F)nc4)c4nncn14)OC[C@H]3CO2` [Example 112]: the IC50 in assay [1] (setting [3]) and in assay [1] (setting [4]) was 100 to 500 nM throughout. The Kd in assay [2] lay in the range of 2.5 to 5 nM.

As for `Fc1ccc2c3c1CNc1c(cc(-c4ccc(C(F)(F)F)cn4)c4nncn14)OCC3CO2` (stereo not shown) [Example 113], the IC50 in assay [1] (setting [3]) and in assay [1] (setting [4]) was over 500 nM in each case. Also, the Kd in assay [2] lay within 10 to 50 nM.

As for `Fc1ccc2c3c1CNc1c(cc(-c4cnc(C(F)(F)F)nc4)c4nncn14)OC[C@H]3CO2` [Example 114], the IC50 in assay [1] (setting [3]) and in assay [1] (setting [4]) was 100 to 500 nM each time. Further, the Kd in assay [2] was under 2.5 nM.

As for `Fc1ccc2c3c1CNc1c(cc(-c4ccc(N5CCOCC5)nc4)c4nncn14)OC[C@H]3CO2` [Example 116], the IC50 in assay [1] (setting [3]) is over 500 nM; in assay [1] (setting [4]), 100 to 500 nM. For the same molecule, in assay [2], the Kd is under 2.5 nM.

Take `CN1CCN(c2ccc(-c3cc4c(n5cnnc35)NCc3c(F)ccc5c3[C@H](CO5)CO4)cn2)CC1` [Example 117]: the IC50 lay within 100 to 500 nM in assay [1] (setting [3]) and 50 to 100 nM in assay [1] (setting [4]). In addition, in assay [2], the Kd is under 2.5 nM.

Consider `CN1CCN(c2ncc(-c3cc4c(n5cnnc35)NCc3c(F)ccc5c3[C@H](CO5)CO4)cn2)CC1` [Example 118], for which the IC50 in assay [1] (setting [3]) is 100 to 500 nM; in assay [1] (setting [4]), 50 to 100 nM. Also, in assay [2], the Kd was under 2.5 nM.

As for `Cc1cc(-c2cc3c(n4cnnc24)NCc2c(F)ccc4c2[C@H](CO4)CO3)cnn1` [Example 123], the IC50 in assay [1] (setting [3]) and in assay [1] (setting [4]) was over 500 nM in each case. For the same molecule, the dissociation constant (Kd) in assay [2] was under 2.5 nM.
